This is an account of results in patent publication US11638723B2, “Method for generating T cells progenitors” (Assistance Publique—Hopitaux de Paris, priority 2017, dated 2023).

In one assay the test system is DL-4 T-cell precursors. Description: Analysis of T cell receptor rearrangement. Format: cell-based, human. How it is done: TCR gene rearrangement analysis was performed in duplicate and on the two independently purified subsets (average is shown). TCR-δ quantification (D δ2-D δ3, D δ2-J δ1, and D δ3-J δ1) was performed with the listed sets of primers and probes. The analysis of TCR rearrangements by multiplex fluorescent PCR was performed by separation of fluorochrome-labeled single stand PCR products in a capillary sequencing polymer and detected via automated laser scanning.

The subject of assay [1] is CD34+ cells from cord blood. Description: DL-4 culture of CD34+ cells, T-cell precursor generation (flow cytometry). The settings on record: FIG. 9. Format: cell-based, human. In general terms: In flow cytometry, cells or beads pass a laser one at a time.
Protocol: CD34+ cells from human CB or mobilized peripheral blood samples were cultured in 24-well plates or 6-well plates that had been coated with recombinant human fibronection (RetroNectin®, Clontech/Takara) and DL-4 (5 μg/ml, PX'Therapeutics, Grenoble, France). Coating was performed for 2 h at 37° C., DL-4 coated wells were then blocked with bovine serum albumin 2% (BSA) in phosphate-buffered saline (PBS) for 30 minutes at 37° C. and washed with PBS. […] Cultured cells were analyzed by fluorescence-activated cell sorting (FACS) after 3 and 7 days of culture on DL-4 respectively to exclude CD34-/CD7-myeloid cells from subsequent analyses.
Human cells were stained and analyzed using a Gallios analyzer (Beckman Coulter, Krefeld, Germany). […] The data were analyzed using FlowJo software (Treestar, Ashland, Oreg.) after gating on viable, 7AAD-negative cells.
The data were analyzed using FlowJo software (version 10.2, Treestar, Ashland, Oreg.) after gating on viable, 7AAD-negative cells.
Assay [2] deals with T1, Aryl hydrocarbon/Dioxin receptor (AhR) (Homo sapiens, UniProt P35869).
T1 sequence (P35869 11-848): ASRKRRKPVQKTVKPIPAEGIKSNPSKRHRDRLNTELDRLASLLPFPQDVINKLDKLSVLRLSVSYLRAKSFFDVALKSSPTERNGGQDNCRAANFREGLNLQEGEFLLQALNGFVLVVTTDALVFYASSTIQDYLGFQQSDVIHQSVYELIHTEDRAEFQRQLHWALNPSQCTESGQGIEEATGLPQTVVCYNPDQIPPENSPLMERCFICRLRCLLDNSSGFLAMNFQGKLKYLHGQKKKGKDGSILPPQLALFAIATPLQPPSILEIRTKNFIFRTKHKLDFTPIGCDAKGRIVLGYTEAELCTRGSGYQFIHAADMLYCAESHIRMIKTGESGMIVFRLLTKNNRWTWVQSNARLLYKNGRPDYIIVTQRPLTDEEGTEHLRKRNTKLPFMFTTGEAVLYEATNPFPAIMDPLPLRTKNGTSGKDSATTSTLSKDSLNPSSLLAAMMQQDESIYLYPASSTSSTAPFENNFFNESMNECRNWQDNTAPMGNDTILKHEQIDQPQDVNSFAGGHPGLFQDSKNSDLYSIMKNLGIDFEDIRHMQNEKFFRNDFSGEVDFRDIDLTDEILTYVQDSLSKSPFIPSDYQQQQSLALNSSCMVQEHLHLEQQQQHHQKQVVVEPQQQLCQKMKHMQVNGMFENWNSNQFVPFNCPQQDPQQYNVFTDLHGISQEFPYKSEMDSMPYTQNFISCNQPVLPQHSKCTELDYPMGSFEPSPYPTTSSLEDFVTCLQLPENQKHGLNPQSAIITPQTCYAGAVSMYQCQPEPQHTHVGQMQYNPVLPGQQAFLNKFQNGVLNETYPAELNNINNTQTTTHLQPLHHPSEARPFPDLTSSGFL
As to conditions: cited from earlier work.

One may read the IC50 as the concentration that inhibits the measured activity by half.

As for `CC(C)n1cnc2c(NCCc3ccc(O)cc3)nc(-c3csc4ccccc34)nc21` [SR1, 4-(2-(2-(Benzo[b]thiophen-3-yl)-9-isopropyl-9H-purin-6-ylamino)ethyl)phenol], the TCRdelta rearrangements entry in the assay with DL-4 T-cell precursors (CB cells) is listed as “Detection of D52-D53 rearrangements”. Further, in the assay on DL-4 T-cell precursors (after 7 days of culture), the “signs of TCR rearrangement” value was “do not exhibit any signs of TCR rearrangement”. The “T-cell differentiation, CD5+CD7+ cells at day 7” value in assay [1] is “accelerates T-cell differentiation”.

Regarding `Cc1ccccc1N=Nc1ccc(NC(=O)c2ccnn2C)c(C)c1` [CH 223191], the IC50 in assay [2] is 30 nM.
